IC50 and Kd data for eleven compounds are collected here from patent publication US7378407B2, “Geldanamycin compounds and method of use” (Kosan Biosciences Incorporated, priority 2004, dated 2008).

Molecules are shown by their SMILES. Where two headings read alike, the source gives them in different places.

One test deals with SKBr3 cells. Kind of test: cells. In kind it is cell-based, human. The note with it: read-out: Cytotoxicity, SKBr3 Cells (IC50 (nM)). Here is the method: The human breast cancer cell line SKBr3 was obtained from the American Type Culture Collection (Manassas, Va.) and maintained in McCoy's 5A modified medium (Invitrogen; Carlsbad, Calif.) supplemented with 10% fetal bovine serum (FBS) (Hyclone; Logan, Utah) and 2 mM glutamine, in humidified air with 5% CO2 at 37° C.
Cells were seeded in duplicate in 96-well black tissue culture microtiter plates at ˜4000 cells per well and allowed to attach overnight. Serial 10-fold dilutions of compounds were added, and the cells were incubated for 72 h. Cell viability was determined using the CellTiter-Glo™ Luminescent Cell Viability Assay (Promega; Madison, Wis.). IC50 is defined as the concentration of drug required for inhibiting cell growth by 50%.

A further test deals with human Hsp90α (Homo sapiens, UniProt P07900). Kind of test: Hsp90α binding, SPA competition with [allyl-3H]-17-AAG. An excerpt: Truncated (Carreras et al. Anal. Biochem. 2003, 317, 40-46) and full-length forms of human Hsp90 were expressed in E. coli with N-terminal polyHis and biotinylation recognition sequence (BRS) tags to facilitate purification and SPA assay, respectively. […] The 3′ end of the gene contained a BamHI site, adding a single proline residue to the C-terminus. The tagged full-length protein was cloned into pET21d as described for the tagged N-domain of Hsp90 (Carreras et al., cited supra), and co-expressed with biotin ligase encoded by pBIRAcm (Avidity, Denver, Colo.) in Escherichia coli BL21DE(3).
Biotinylated Hsp90α was added to a 1 mg/mL suspension of streptavidin coated YiSi beads (Pharmacia RPNQ0012; 219 pmol streptavidin/mg) in Binding Buffer (10 mM Tris-HCl, 5 mM MgCl2, pH 7.0) to obtain a final concentration of 225 nM. […] Reaction mixtures were incubated for 2˜4 h at room temperature in 96-well assay plates, then signals for each reaction were measured using a Wallac Microbeta scintillation counter. The resulting data was fit to a competitive binding equation (Segal, I. H., Enzyme Kinetics: Behavior and analysis of rapid equilibrium and steady-state enzyme systems; Wiley Interscience: New York, 1975).

[1] abbreviates: SK-BR-3, human breast cancer cell line SKBr3, 72 h incubation, concentration inhibiting cell growth by 50%.
Setting [2] is: biotinylated Hsp90α on streptavidin beads, competition with [allyl-3H]-17-AAG, 2-4 h room temperature, pH 7.0, read-out: Hsp90α Binding (Kd (μM)).

Consider `CO[C@H]1/C=C\C=C(/C)C(=O)NC2=CC(=O)C(NCC[N+](C)(C)C)=C(C[C@@H](C)C[C@H](OC)[C@H](O)[C@@H](C)/C=C(\C)[C@@H]1OC(N)=O)C2=O` [Compound 3, {[2-(17-demethoxygeldanamycin-17-yl)amino]ethyl}trimethylammonium chloride], for which, in the test with SKBr3 cells (setting [1]), the IC50 (as a rule, the midpoint of a concentration-inhibition curve) was more than 1000 nM. The Kd (as a rule, the concentration at which binding is half-saturated) on human Hsp90α (setting [2]) stood at 0.3 µM.

As to `CO[C@H]1/C=C\C=C(/C)C(=O)NC2=CC(=O)C(NCCP(=O)(O)O)=C(C[C@@H](C)C[C@H](OC)[C@H](O)[C@@H](C)/C=C(\C)[C@@H]1OC(N)=O)C2=O` [Compound 8], in the test on SKBr3 cells (Homo sapiens, SK-BR-3, 72 h), the IC50 was approximately 3000 nM. On human Hsp90α, this compound displayed a Kd of 0.6 µM. `CO[C@H]1/C=C\C=C(/C)C(=O)NC2=CC(=O)C(NCC[N+](C)(C)[O-])=C(C[C@@H](C)C[C@H](OC)[C@H](O)[C@@H](C)/C=C(\C)[C@@H]1OC(N)=O)C2=O` [Compound 4, [2-(17-demethoxygeldanamycin-17-ylamino)-ethyl]dimethylamine N-oxide]: in the test with SKBr3 cells (setting [1]), the IC50 was more than 1000 nM. Also, at human Hsp90α (setting [2]), the Kd stood at 0.6 µM. As for `CO[C@H]1/C=C\C=C(/C)C(=O)NC2=CC(=O)C(NCCCP(=O)(O)O)=C(C[C@@H](C)C[C@H](OC)[C@H](O)[C@@H](C)/C=C(\C)[C@@H]1OC(N)=O)C2=O` [Compound 9], the IC50 with SKBr3 cells (Homo sapiens, SK-BR-3, 72 h) is approximately 1000 nM. The same compound registered a Kd on human Hsp90α of 0.9 µM. With `C=CCNC1=C2C[C@@H](C)C[C@H](OC)[C@H](O)[C@@H](C)/C=C(\C)[C@H](OC(N)=O)[C@@H](OC)/C=C\C=C(/C)C(=O)NC(=CC1=O)C2=O` [Compound 17-AAG, 17-allylamino-17-demethoxy-geldanamycin, reference compound], the IC50 with SKBr3 cells (Homo sapiens, SK-BR-3, 72 h) worked out at 38 nM. With `CO[C@H]1/C=C\C=C(/C)C(=O)NC2=CC(=O)C(NCCC(=O)O)=C(C[C@@H](C)C[C@H](OC)[C@H](O)[C@@H](C)/C=C(\C)[C@@H]1OC(N)=O)C2=O` [Compound 7], in the test on SKBr3 cells (setting [1]), the IC50 is more than 5000 nM. Besides, on human Hsp90α (setting [2]), the Kd was 1.1 µM. For the compound `CO[C@H]1/C=C\C=C(/C)C(=O)NC2=CC(=O)C(NCCCCP(=O)(O)O)=C(C[C@@H](C)C[C@H](OC)[C@H](O)[C@@H](C)/C=C(\C)[C@@H]1OC(N)=O)C2=O` [Compound 10], the IC50 in the test with SKBr3 cells (Homo sapiens, SK-BR-3, 72 h) was approximately 2000 nM. Regarding `CO[C@H]1/C=C\C=C(/C)C(=O)NC2=CC(=O)C(N[C@@H]3C(O)O[C@@H](CO)[C@H](O)[C@H]3O)=C(C[C@@H](C)C[C@H](OC)[C@H](O)[C@@H](C)/C=C(\C)[C@@H]1OC(N)=O)C2=O` (stereo partly shown) [Compound 1, 17-(glucos-2-amino)-17-demethoxygeldanamycin], the IC50 in the test on SKBr3 cells (setting [1]) came to 1200 nM. For the same compound, the Kd at human Hsp90α (setting [2]) is 0.5 µM.

`CO[C@H]1/C=C\C=C(/C)C(=O)NC2=CC(=O)C(NC[C@@H]3OC(O)[C@@H](O)[C@H](O)[C@H]3O)=C(C[C@@H](C)C[C@H](OC)[C@H](O)[C@@H](C)/C=C(\C)[C@@H]1OC(N)=O)C2=O` (stereo partly shown) [Compound 2, 17-(glucos-6-amino)-17-demethoxygeldanamycin]: in the test on SKBr3 cells (setting [1]), the IC50 was 5300 nM. The Kd on human Hsp90α (setting [2]) was determined as 0.2 µM.

Take `CO[C@H]1/C=C\C=C(/C)C(=O)NC2=CC(=O)C(NCCOCCOCCOCCNC(=O)CCCC[C@@H]3SC[C@@H]4NC(=O)N[C@@H]43)=C(C[C@@H](C)C[C@H](OC)[C@H](O)[C@@H](C)/C=C(\C)[C@@H]1OC(N)=O)C2=O` [Compound 6]: the IC50 in the test with SKBr3 cells (setting [1]) is more than 1000 nM. Also, the Kd at human Hsp90α (setting [2]) stood at 1.1 µM. With `CO[C@H]1/C=C\C=C(/C)C(=O)NC2=CC(=O)C(NCCOCCOCCNC(=O)CCCC[C@@H]3SC[C@@H]4NC(=O)N[C@@H]43)=C(C[C@@H](C)C[C@H](OC)[C@H](O)[C@@H](C)/C=C(\C)[C@@H]1OC(N)=O)C2=O` [Compound 5], the IC50 in the test on SKBr3 cells (setting [1]) was more than 1000 nM.
